The source of these data is ChEMBL document CHEMBL1759878, “Design of semisynthetic analogues and 3D-QSAR study of eunicellin-based diterpenoids as prostate cancer migration and invasion inhibitors” (Eur J Med Chem, 2011).

What all share (format): functional, cell-based
Assay [1] has as its system PC-3. Briefly: Antimigratory activity against human PC3 cells assessed as inhibition of cell migration after 24 hrs by wound healing assay. The following applies: PC-3, 24 h.
The subject of assay [2] is PC-3. Briefly: Antimigratory activity against human PC3 cells assessed as migrated cells measured under microscope at 37 uM after 24 hrs by wound healing assay relative to control.
For assay [3], the system named is PC-3. Briefly: Antiinvasive activity against human PC3 cells assessed as inhibition of cells invaded across basement membrane extract at 50 uM by calcein-acetomethylester fluorescence analysis.

Activity calls are given as the source filed them. The calls are words filed in the database; no cut-off is given here.

As to `C=C1CC[C@H](C(C)C)[C@@H]2[C@H]1[C@H]1CC(=C)[C@@H](O)CC[C@@](C)(OC(C)=O)[C@@H]2O1`, the IC50 with PC-3 [1] (read-out: IC50) and in the assay on PC-3 [1] (read-out: pIC50 (converted)) was 44 µM each time.

For the molecule `CC(=O)O[C@]1(C)CC[C@H](C(C)C)[C@@H]2[C@H]1[C@H]1C[C@]3(C)CCC[C@@](C)(O3)[C@@H]2O1`, the IC50 in the assay on PC-3 [1] (read-out: IC50) and with PC-3 [1] (read-out: pIC50 (converted)) was 52 µM each time.

As for `C=C1CC[C@H](C(C)C)[C@@H]2[C@H]1[C@H]1CC(=C)[C@@H](OC(C)=O)CC[C@@](C)(OC(C)=O)[C@@H]2O1`, the IC50 with PC-3 [1] (read-out: IC50) and in the assay with PC-3 [1] (read-out: pIC50 (converted)) was 36 µM throughout.

Consider `C=C1CC[C@H](C(C)C)[C@@H]2[C@H]1[C@H]1CC(=C)[C@@H](OC(=O)NCCCCCCCC)CC[C@@](C)(O)[C@@H]2O1`, for which the IC50 in the assay with PC-3 [1] (read-out: IC50) and with PC-3 [1] (read-out: pIC50 (converted)) was 122 µM in each case.

For `C=C1CC[C@H](C(C)C)[C@@H]2[C@H]1[C@H]1CC(=C)[C@@H](OC(=O)Nc3ccccc3)CC[C@@](C)(O)[C@@H]2O1`, the IC50 in the assay on PC-3 [1] (read-out: IC50) and in the assay on PC-3 [1] (read-out: pIC50 (converted)) was 57 µM each time.

For the molecule `C=C1CC[C@H](C(C)C)[C@@H]2[C@H]1[C@H]1CC(=C)[C@@H](OC(=O)NCCCCC)CC[C@@](C)(O)[C@@H]2O1`, the IC50 in the assay on PC-3 [1] (read-out: IC50) and in the assay with PC-3 [1] (read-out: pIC50 (converted)) was 43 µM throughout.

On to `C=C1CC[C@H](C(C)C)[C@@H]2[C@H]1[C@H]1CC(=C)[C@@H](OC(=O)NCCCC)CC[C@@](C)(O)[C@@H]2O1`, for which the result in the assay with PC-3 [2] and in the assay with PC-3 [3] was Active. For the same molecule, the IC50 with PC-3 [1] (read-out: IC50) and in the assay on PC-3 [1] (read-out: pIC50 (converted)) was 37 µM in each case.

For `C=C1CC[C@H](C(C)C)[C@@H]2[C@H]1[C@H]1CC(=C)[C@@H](OC(=O)N(Cc3ccccc3)C(=O)NCc3ccccc3)CC[C@@](C)(O)[C@@H]2O1`, the IC50 in the assay with PC-3 [1] (read-out: IC50) and with PC-3 [1] (read-out: pIC50 (converted)) was 30 µM in each case. Moreover, the outcome in the assay on PC-3 [3] was Active.

`C=CCNC(=O)N(CC=C)C(=O)N(CC=C)C(=O)O[C@H]1CC[C@@](C)(O)[C@@H]2O[C@H](CC1=C)[C@H]1C(=C)CC[C@H](C(C)C)[C@H]12`: the IC50 in the assay on PC-3 [1] (read-out: IC50) and in the assay with PC-3 [1] (read-out: pIC50 (converted)) was 97 µM in each case.

As to `C=C1CC[C@H](C(C)C)[C@@H]2[C@H]1[C@H]1CC(=C)[C@@H](OC(=O)NCCCCl)CC[C@@](C)(O)[C@@H]2O1`, the IC50 in the assay with PC-3 [1] (read-out: IC50) and in the assay on PC-3 [1] (read-out: pIC50 (converted)) was 67 µM in each case.

As to `C=C1C[C@H]2O[C@H]([C@H]3[C@@H]2[C@]2(CC[C@@H]3C(C)C)CO2)[C@](C)(O)CC[C@@H]1OC(=O)N(Cc1ccccc1)C(=O)NCc1ccccc1`, the IC50 with PC-3 [1] (read-out: IC50) and with PC-3 [1] (read-out: pIC50 (converted)) was 70 µM throughout.

As to `C=C1C[C@H]2O[C@H]([C@H]3[C@@H]2[C@]2(CC[C@@H]3C(C)C)CO2)[C@](C)(O)CC[C@@H]1OC(=O)NCCCC` (relative stereo), the IC50 in the assay on PC-3 [1] (read-out: IC50) and in the assay on PC-3 [1] (read-out: pIC50 (converted)) was 90 µM throughout.

As to `C=C1C[C@H]2O[C@H]([C@H]3[C@@H]2[C@]2(CC[C@@H]3C(C)C)CO2)[C@](C)(O)CC[C@@H]1O` (relative stereo), the IC50 in the assay on PC-3 [1] (read-out: IC50) and in the assay with PC-3 [1] (read-out: pIC50 (converted)) was 160 µM throughout. In addition, in the assay with PC-3 [3], the outcome was Active.

In the case of `C=C1CC[C@H](C(C)C)[C@@H]2[C@H]1[C@H]1C[C@](C)(O)[C@@H](OC)CCC(C)(O)[C@@H]2O1` (single isomer, unassigned) [SCLEROPHYTIN F METHYL ETHER], the IC50 in the assay with PC-3 [1] (read-out: IC50) and with PC-3 [1] (read-out: pIC50 (converted)) was 59 µM throughout.

On to `C=C1CC[C@H](C(C)C)[C@@H]2[C@H]1[C@H]1C/C(C)=C\CC[C@@](C)(O)[C@@H]2O1` [6Z-CLADIELLIN], for which the IC50 in the assay with PC-3 [1] (read-out: IC50) and in the assay with PC-3 [1] (read-out: pIC50 (converted)) was 84 µM in each case.

On to `C=C1CC[C@H](C(C)C)[C@@H]2[C@H]1[C@@H]1CC(=C)[C@@H](O)CC[C@](C)(O)[C@H]2O1` [CLADIELLISIN], for which the IC50 with PC-3 [1] (read-out: IC50) and in the assay with PC-3 [1] (read-out: pIC50 (converted)) was 88 µM each time. In addition, the outcome in the assay with PC-3 [3] was Active.

Regarding `C=C1C[C@H]2O[C@H]([C@@H]3[C@@H](C(C)C)[C@H](O)C[C@@](C)(OC(C)=O)[C@@H]32)[C@](C)(OC(C)=O)CC[C@@H]1O` [KLYSIMPLEXIN E], the IC50 in the assay on PC-3 [1] (read-out: IC50) and with PC-3 [1] (read-out: pIC50 (converted)) was 125 µM in each case.

For the molecule `CC(=O)O[C@]1(C)CC[C@H](C(C)C)[C@@H]2[C@H]1[C@H]1C[C@](C)(O)[C@@H](O)CC[C@@](C)(OC(C)=O)[C@@H]2O1` [KLYSIMPLEXIN G], the IC50 in the assay with PC-3 [1] (read-out: IC50) and in the assay with PC-3 [1] (read-out: pIC50 (converted)) was 16 µM in each case.

In the case of `CCCC(=O)O[C@]1(C)CC[C@H](C(C)C)[C@@H]2[C@H]1[C@H]1C[C@](C)(O)[C@@H](O)CC[C@@](C)(OC(C)=O)[C@@H]2O1` [PACHYCLADIN A], the IC50 in the assay with PC-3 [1] (read-out: IC50) and in the assay on PC-3 [1] (read-out: pIC50 (converted)) was 5 µM each time.

In the case of `C=C1C[C@H]2O[C@H]([C@@H]3[C@@H](C(C)C)[C@H](O)C[C@@](C)(OC(=O)CCC)[C@@H]32)[C@](C)(OC(C)=O)CC[C@@H]1O` [PACHYCLADIN B], the IC50 in the assay on PC-3 [1] (read-out: IC50) and with PC-3 [1] (read-out: pIC50 (converted)) was 88 µM throughout.

Take `C=C1CC[C@H](C(C)C)[C@@H]2[C@H]1[C@H]1CC(=C)[C@@H](OC(C)=O)CC[C@@](C)(O)[C@@H]2O1` [PACHYCLADIN C]: the IC50 in the assay with PC-3 [1] (read-out: IC50) and with PC-3 [1] (read-out: pIC50 (converted)) was 56 µM in each case.

For `C=C1CC[C@H](C(C)C)[C@@H]2[C@H]1[C@H]1CC(=C)[C@]3(O)CC[C@@](C)(O3)[C@@H]2O1` [PACHYCLADIN D], the IC50 in the assay on PC-3 [1] (read-out: IC50) and in the assay on PC-3 [1] (read-out: pIC50 (converted)) was 75 µM in each case.

As for `C=C1C[C@H]2O[C@H]([C@H]3[C@@H]2[C@](C)(OC(C)=O)CC[C@@H]3C(C)C)[C@@]2(C)CC[C@]1(O)O2` [PACHYCLADIN E], the IC50 with PC-3 [1] (read-out: IC50) and in the assay on PC-3 [1] (read-out: pIC50 (converted)) was 64 µM in each case.

In the case of `C=C1CC[C@H](C(C)C)[C@@H]2[C@H]1[C@H]1C[C@](C)(O)[C@@H](OCC)CC[C@@](C)(O)[C@@H]2O1` [PATAGONICOL], the IC50 in the assay with PC-3 [1] (read-out: IC50) and with PC-3 [1] (read-out: pIC50 (converted)) was 76 µM in each case.

On to `C=C1CC[C@H](C(C)C)[C@@H]2[C@H]1[C@H]1C[C@](C)(O)[C@@H](O)CC[C@@](C)(O)[C@@H]2O1` [SCLEROPHYTIN A], for which the IC50 in the assay with PC-3 [1] (read-out: IC50) and with PC-3 [1] (read-out: pIC50 (converted)) was 84 µM throughout.

With `C=C1CC[C@H](C(C)C)[C@@H]2[C@H]1[C@H]1C[C@](C)(O)[C@@H](O)CC[C@@](C)(OC(C)=O)[C@@H]2O1` [SCLEROPHYTIN B], the IC50 in the assay with PC-3 [1] (read-out: IC50) was 160 µM; in the assay on PC-3 [1] (read-out: pIC50 (converted)) it was 159 µM.
